US12318358B2, “Probenecid for use in treating epileptic diseases, disorders or conditions” (PARIS SCIENCES ET LETTRES—QUARTIER LATIN, priority 2017, dated 2025)

Key:
[1] = test system: human epileptic cortical slices; experiment: Multi-electrode array (MEA) recordings of ictal-like discharges in human epileptic cortical slices in pro-epileptic conditions; assay type: cell-based
Protocol: The resected cortical block was prepared according to Dossi et al. (J Vis Exp. 2014 Oct. 26; (92):e51870). Briefly, post-surgical tissue was transported in a cold solution containing (in mM) 250 D-sucrose, 25 NaHCO3, 3 KCl, 1 CaCl2, 10 MgCl2 and 10 D-glucose, and oxygenated with carbogen (95% O2 and 5% CO2). Meninges, blood clots and vessels were gently removed and transverse cortical slices (400 μm-thick) were cut with a vibratome (HM650V, Microm Microtech, France). They were maintained at 37° C., equilibrated with 95% 02 and 5% CO2, in an interface chamber, continuously perfused with an artificial cerebro-spinal fluid (ACSF) containing (in mM) 124 NaCl, 3 KCl, 26 NaHCO3, 1.6 CaCl2, 1.3 MgCl2 and 10 D-glucose at 2 ml/min, for at least 1 hour before recording.
Cortical slices were transferred on planar MEA petri dishes (200-30 ITO electrodes, organized in a 12×12 matrix, with internal reference, 30 μm diameter and 200 μm inter-electrode distance; Multichannel Systems, Germany). They were kept in place using a platinum anchor and continuously perfused at a rate of 5-6 ml/min with ACSF.
Pictures of cortical slices on MEAs were acquired with a video microscope table (MEA-VMT1; Multichannel Systems, Germany) through MEA_Monitor software (Multichannel Systems, Germany) to identify the location of the electrodes relatively to the pial surface of the slices. Data were sampled at 10 kHz and the slice activity was recorded at 37° C. by a MEA2100-120 system (bandwidth 1-3000 Hz, gain 5×; Multichannel Systems, Germany) through MC_Rack 4.5.1 software (Multichannel systems, Germany) The activity of the slices was recorded in ACSF containing (in mM) 124 NaCl, 3 KCl, 26 NaHCO3, 1.6 CaCl2, 1.3 MgCl2 and 10 D-glucose (Ct ACSF) and in high potassium, magnesium-free pro-epileptic ACSF containing (in mM) 6 KCl, 0 Mg^2+ (6K 0Mg-ACSF).
To investigate whether probenecid medication could be used as a treatment for epileptic seizures, the electrophysiological activity of human epileptic cortical slices was recorded in pro-epileptic conditions, before and after probenecid administration (1 mM, 30 minutes).

[2] = test system: kainate (KA) mouse model of chronic temporal lobe epilepsy; experiment: Telemetric EEG recording of spontaneous seizures in kainate (KA) mouse model of chronic temporal lobe epilepsy; assay type: in vivo, C57BL/6j male mice; conditions: for Seizure duration / Seizure frequency: 200 mg/kg i.p. single injection, n = 5
Protocol: Six weeks old C57BL/6j male mice were injected unilaterally with kainate (KA; 0.05 μl, 20 mM in saline) at a rate of 0.5 μl/min in the CA1 area of the right hippocampus (−2 mm anteroposterior, +1.5 mm lateral, −1.4 mm dorso-ventral) by mean of a stereotaxic apparatus and a cannula (0.29 mm diameter) connected to a precision pump. Mice were then left 3 weeks for settling of the chronic epileptic phenotype.
EEG experiments were carried out using wireless ETA-F 10 transmitters (DataSciences International, USA) for chronic EEG recording and video monitoring 3 weeks after KA injection. After anesthesia (ketamine, 95 mg/kg; xylazine, 10 mg/kg; i.p.), a 1 cm midline sagittal incision was made starting above the skull midline and extending along the neck to create a pocket for subcutaneous placement of the transmitter along the dorsal flank of the animal. The recording flexible electrodes (stereotaxic coordinates: −2 mm anteroposterior, +1.5 mm and −1.5 mm lateral) were implanted subdurally through small holes drilled in the skull and held in place with dental cement. Mice were implanted with wireless ETA-F10 transmitters 2 weeks after the KA injection and were allowed to recover for 7 days before recording.
EEG signal was collected through DSI radiofrequency receivers placed under each cage. EEG data were acquired at a sampling rate of 200 Hz using the DSI Dataquest A.R.T. system (version 4.33). To assess therapeutic potential of probenecid, KA mice were recorded with ETA-F10 DSI EEG electrodes for 48 h in their home cage, injected with probenecid (200 mg/kg in corn oil, Sigma-Aldrich; i.p.) and recorded for 24 hours post-treatment. Analysis of seizures was performed using the NeuroScore software (Data Sciences International, USA); seizures were detected on the EEG as spike trains with a minimal amplitude of 1.5× baseline and a minimal duration of 5 s at a frequency ≥1 Hz (Bergstrom et al., Sci Rep. 2013; 3:1483. doi: 10.1038/srep01483). Artifacts were automatically detected using a high detection threshold and removed manually.
To further assess the therapeutic potential of probenecid, we tested the in vivo effect of probenecid i.p. in a kainate (KA) mouse model of chronic temporal lobe epilepsy. To do so, electroencephalogram (EEG) of KA mice were recorded before (48 hours) and after (24 hours) probenecid administration (200 mg/kg) (FIG. 1C).

[3] = probenecid 1 mM, 30 minutes, pro-epileptic ACSF (6K 0Mg), n = 6 slices
[4] = 20-24 hours post-treatment, single injection 200 mg/kg i.p.

For `CCCN(CCC)S(=O)(=O)c1ccc(C(=O)O)cc1` [Probenecid, 4-(dipropylsulfamoyl)benzoic acid], which “Effect on IDs (FIG. 1A example recording)” value ([1]; PBN 1 mM, 30 min, PIDs do not disappear) is on record?
The value was “disappear”.

What about the “human cortical slices in which ictal-like discharges (IDs) were fully inhibited” value ([1]; probenecid 1 mM, 30 minutes) of the same molecule?
Its value is 5 out of 6.

What about the ID duration [1, 3] of the same molecule?
Its ID duration is 7.59 ± 7.59 s.

And the ID frequency [1, 3]?
The ID frequency was 0.03 ± 0.03 IDs/min.

What about the “ID duration in the remaining slice” value ([1]; probenecid 1 mM, 30 minutes, the one slice not fully inhibited) of the same molecule?
The value was “halved”.

And the Seizure duration ([2]; 4-8 h post-treatment)?
The Seizure duration was “no seizure detected”.

And the Seizure frequency ([2]; 4-8 h post-treatment)?
The Seizure frequency was “no seizure detected”.

And the “Effect on spontaneous seizures” value ([2]; 4 to 8 hours post-treatment, single injection 200 mg/kg i.p., in all mice tested)?
The value was “completely blocked”.

What about the “Duration of reappeared seizures versus pre-treatment” value [2, 4] of the same molecule?
Its value is “significantly shorter duration”.

What about the “Mice in which seizures reappeared” value [2, 4] of the same molecule?
Its value is 2 of 5.

What about the Seizure duration ([2]; 20-24 h post-treatment) of the same molecule?
Its Seizure duration is 3.6 ± 2.25 s.

And the Seizure frequency ([2]; 20-24 h post-treatment)?
The Seizure frequency was 1.2 ± 0.97 seizure/4 h.
